From patent US12697402B2, “Detection of colonic neoplasia in vivo using near-infrared peptide targeted against overexpressed cMet” (THE REGENTS OF THE UNIVERSITY OF MICHIGAN, priority 2019, dated 2026)
“Also recorded” adds a separate entry of the source. Peptide text beside a SMILES is read from it. * marks the point of attachment. X1 = CN1/C(=C/C=C/C=C/C2=[N+](CCCCCC(=O)*)c3ccc4ccccc4c3C2(C)C)C(C)(C)c2c1ccc1ccccc21

Tests used:
[1] = tested on: phosphorylation of cMet, AKT and ERK1/2; assay: Effect of peptide on cell signaling (Western blot); assay type: cell-based, human; settings: HT29 cells; 10, 30, 120 min; HGF 25 ng/mL; peptide 5 or 100 μM
Method: HT29 cells were treated with serum-free medium overnight for starvation before incubation with hHGF (hHGF, 294-HG-005, R&D) or peptides. Recombinant Human HGF Protein was added to HT29 cells at concentrations of 25 ng/ml for 10, 30, or 120 min in separate wells. QQT*-Cy5.5 and TLQ*-Cy5.5 were added at concentrations of 5 or 100 μM for 10, 30, and 120 min. Peptides were added at concentrations of 5 and 100 μM for 10, 30, or 120 min. Cells were then washed with 1×PBS and lysed with Pierce RIPA buffer containing Halt Phosphatase Inhibitor Cocktail (Thermo Fisher) and Halt Protease Inhibitor Cocktail (Thermo Fisher). Protein contents were quantified by Bicinchoninic Acid Assay (BCA). Anti-cMet antibody (Cell Signaling, #8198), phospho-cMet (Tyr1234/1235) antibody (Cell Signaling, #3077), anti-AKT antibody (Cell Signaling, #4691), anti-phospho-AKT antibody (Cell Signaling, #9271), anti-ERK1/2 antibody (Abcam, #ab17942), anti-phospho-ERK1/2 antibody (Abcam, #ab50011), and anti-tubulin antibody (Invitrogen, #32-2600) were used per manufacturer's instructions.

HT29 cells = assay: Alamar blue assay, HT29; assay type: cell-based, human; settings: 48 hours; HGF 25 ng/mL; peptide 5 or 100 μM
Method: (§1) An alamar blue assay was performed using HT29 and CCD841 cells. After culturing in serum free media overnight, about 3×10^3 cells were seeded per well in serum free media in 96 well plates at a final volume of 100 μL per well. […] Alamar blue reagent (10 μL) was added in amounts equal to 10% of the volume in the well, and incubated at 37° C. for 4 hours. Fluorescence with excitation at λex=530-560 nm, and emission at λex=590 nm, was measured.

CCD841 cells = assay: Alamar blue assay, CCD841; assay type: cell-based, human; settings: normal colon cells; 48 hours; HGF 25 ng/mL; peptide 5 or 100 μM
Method: as §1

cMet (HT29 cells) = cMet (HT29 cells) (Homo sapiens, UniProt P08581); assay: biochemical
Sequence of cMet (HT29 cells) (P08581 25-1390): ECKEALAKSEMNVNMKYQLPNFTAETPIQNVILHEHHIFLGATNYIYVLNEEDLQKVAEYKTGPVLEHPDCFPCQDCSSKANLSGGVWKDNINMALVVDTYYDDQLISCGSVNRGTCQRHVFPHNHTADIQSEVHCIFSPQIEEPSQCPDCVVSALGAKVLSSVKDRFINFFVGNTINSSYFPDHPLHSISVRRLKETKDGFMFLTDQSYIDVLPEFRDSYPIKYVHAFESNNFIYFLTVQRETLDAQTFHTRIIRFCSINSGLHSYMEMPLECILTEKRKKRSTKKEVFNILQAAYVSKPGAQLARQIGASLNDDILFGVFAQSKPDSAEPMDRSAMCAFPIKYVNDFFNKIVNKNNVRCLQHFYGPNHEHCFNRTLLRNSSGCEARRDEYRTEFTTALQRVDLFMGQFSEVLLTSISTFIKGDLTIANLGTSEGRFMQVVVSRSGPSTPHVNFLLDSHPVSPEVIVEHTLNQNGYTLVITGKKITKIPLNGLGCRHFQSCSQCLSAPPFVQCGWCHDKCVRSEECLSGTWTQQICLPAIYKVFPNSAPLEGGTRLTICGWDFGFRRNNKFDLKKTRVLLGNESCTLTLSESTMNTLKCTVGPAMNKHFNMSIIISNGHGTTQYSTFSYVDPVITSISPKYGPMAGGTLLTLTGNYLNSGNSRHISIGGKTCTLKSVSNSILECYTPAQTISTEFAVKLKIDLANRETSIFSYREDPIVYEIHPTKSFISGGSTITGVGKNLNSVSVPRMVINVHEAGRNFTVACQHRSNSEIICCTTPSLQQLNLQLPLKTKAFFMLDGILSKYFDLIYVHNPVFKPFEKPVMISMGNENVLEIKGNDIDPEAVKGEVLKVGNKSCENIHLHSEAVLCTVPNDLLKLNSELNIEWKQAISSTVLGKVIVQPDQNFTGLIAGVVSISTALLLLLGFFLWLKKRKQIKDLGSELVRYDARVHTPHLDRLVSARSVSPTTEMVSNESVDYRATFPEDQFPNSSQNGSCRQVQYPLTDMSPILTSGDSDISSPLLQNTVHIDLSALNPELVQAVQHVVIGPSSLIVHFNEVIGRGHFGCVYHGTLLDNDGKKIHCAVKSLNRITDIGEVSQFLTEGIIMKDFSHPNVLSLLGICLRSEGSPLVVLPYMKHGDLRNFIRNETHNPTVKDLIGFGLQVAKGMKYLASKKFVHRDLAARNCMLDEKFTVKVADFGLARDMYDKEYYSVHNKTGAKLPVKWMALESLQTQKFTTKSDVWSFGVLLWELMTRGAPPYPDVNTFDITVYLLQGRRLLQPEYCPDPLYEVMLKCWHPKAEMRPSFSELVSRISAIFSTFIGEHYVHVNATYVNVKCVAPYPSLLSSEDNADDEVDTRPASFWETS
Method: Cells then were washed 3 times with 1×PBS containing 0.5% BSA to remove unbound peptides before analysis with flow cytometry (FACS Canto; BD Biosciences, San Jose, CA). Sample means were used to calculate the equilibrium dissociation constant KD using nonlinear regression analysis with Origin 6.1 data analysis software (OriginLab, Northampton, MA). KD=1/KA was calculated by performing a least-squares fit of the data to the nonlinear equation I[X]=(I0+Imaxka[X])/(I0+ka[X]). I0 and Imax are the initial and maximum fluorescence intensities, corresponding to no peptide and peptide saturation, respectively, and [X] represents the concentration of the bound peptide.^34

Molecule	phosphorylation of cMet and downstream AKT and ERK1/2 [1]	growth of HT29 cells (HT29 cells)	growth of CCD841 cells (CCD841 cells)	Kd (cMet (HT29 cells))
HGF: recombinant human hepatocyte growth factor, known ligand for cMet, positive control	strong phosphorylation activity; also recorded: induced phosphorylation	increased growth	–	–
CC(C)C[C@H](NC(=O)[C@H](CO)NC(=O)[C@H](Cc1c[nH]c2ccccc12)NC(=O)[C@H](CC(N)=O)NC(=O)[C@@H](NC(=O)[C@H](CCC(N)=O)NC(=O)[C@@H](N)CCC(N)=O)[C@@H](C)O)C(=O)NCC(=O)NCC(=O)NCC(=O)N[C@@H](CO)C(=O)N[C@@H](CCCCNC(=O)CCCCC[N+]1=C(/C=C/C=C/C=C2/N(C)c3ccc4ccccc4c3C2(C)C)C(C)(C)c2c1ccc1ccccc21)C(N)=O [QQT*-Cy5.5] (H-QQTNWSLGGGSK(X1)-NH2)	–	–	no effect on growth; also recorded: No change	57 nM
